Consider 19 compounds from patent publication EP4563573A1, “COMPOUND, AND PREPARATION METHOD THEREFOR AND USE THEREOF IN PREPARATION OF SEH INHIBITOR AND PPARS AGONIST” (Shenyang Pharmaceutical University, priority 2023, dated 2024).

One data set addresses T1, PPARγ (Homo sapiens, UniProt P37231).
T1 sequence (P37231 204-505): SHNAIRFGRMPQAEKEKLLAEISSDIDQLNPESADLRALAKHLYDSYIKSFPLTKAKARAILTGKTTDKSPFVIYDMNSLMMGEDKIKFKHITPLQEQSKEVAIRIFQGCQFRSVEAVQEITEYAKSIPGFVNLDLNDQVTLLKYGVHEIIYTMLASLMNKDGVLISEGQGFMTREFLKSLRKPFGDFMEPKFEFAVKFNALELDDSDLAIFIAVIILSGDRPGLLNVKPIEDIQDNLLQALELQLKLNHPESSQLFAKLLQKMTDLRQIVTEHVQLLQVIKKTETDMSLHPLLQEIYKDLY
Put plainly: PPARγ agonist activity test (luciferase reporter gene). In kind it is cell-based. The following applies: for PPARγ (compared with Rosiglitazone, %): relative to Rosiglitazone. The source says: • 1. PPARγ agonist activity test Detection principle: when pM-hPPAR binds to the appropriate ligand, and is activated and binds to the GAL4DNA binding site in the plasmid pB4-RES-tk-luc, thereby initiating the expression of the downstream luciferase reporter gene. The amount of luciferase is detected to determine whether the compound to be tested is a PPAR agonist. • 2.
A general note: A reporter such as luciferase makes a cellular process visible.

In data set [1] the target is T2, murine sEH (MsEH) (Mus musculus, UniProt P34914).
T2 sequence (P34914 1-554): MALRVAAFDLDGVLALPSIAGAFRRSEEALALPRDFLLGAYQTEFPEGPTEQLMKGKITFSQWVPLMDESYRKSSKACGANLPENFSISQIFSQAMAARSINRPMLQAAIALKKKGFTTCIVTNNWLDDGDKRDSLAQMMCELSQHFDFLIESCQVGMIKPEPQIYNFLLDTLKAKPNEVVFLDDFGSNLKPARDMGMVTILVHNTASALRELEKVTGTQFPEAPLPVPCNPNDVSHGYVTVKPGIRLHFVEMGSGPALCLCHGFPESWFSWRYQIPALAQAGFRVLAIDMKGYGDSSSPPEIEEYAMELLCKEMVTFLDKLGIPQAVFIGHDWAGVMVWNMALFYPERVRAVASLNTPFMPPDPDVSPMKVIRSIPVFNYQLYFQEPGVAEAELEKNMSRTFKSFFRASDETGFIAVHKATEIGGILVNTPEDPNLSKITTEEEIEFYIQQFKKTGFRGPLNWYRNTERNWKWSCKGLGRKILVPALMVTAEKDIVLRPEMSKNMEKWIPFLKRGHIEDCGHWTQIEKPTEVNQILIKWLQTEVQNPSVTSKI
Description: biochemical.
Description: (§1) Detection principle: a specific substrate, (3-phenyl-oxy)-acetic acid cyano-(6-methoxy-naphthalen-2-yl) methyl ester, namely PHOME, is non-fluorescent but can be hydrolyzed under the action of sEH enzyme to generate a product 6-methoxy-2-naphthaldehyde. […] Based on the above principle, the inhibition rates of samples with different concentrations were calculated compared with the positive control group. The IC50 value of the compound was calculated based on the inhibition rate and concentration using SPSS 20 software.
(§2) PHOME solution: 0.79 mg PHOME was dissolved in 106 µL DMSO to obtain a 20 mM PHOME solution, which was diluted to 1/3 mM with Tris-HCl buffer when used.
(§3) sEH solution: sEH (5 mg/mL) stock solution was stored in a -80°C refrigerator and diluted to 4 µg/mL with 25 mM Tris-HCl buffer when used.
(§4) A sample powder to be tested was dissolved in DMSO to a 20 mM solution, stored in a - 20°C refrigerator for later use, and diluted with Tris-HCl buffer to the corresponding concentration when used.
(§5) Experimental design: solvent group, 100% activity group (A), inhibitor group (B), positive control group (C), as shown in Table 1.
(§6) Three replicate wells were set for each sample, and the average of the three replicate wells was the fluorescence value (F) of the compound to be tested. […] The IC50 value of the compound was calculated based on the inhibition rate and concentration using SPSS 20 software.
(§7) The activity of the compounds was evaluated using a biochemical method with [cyano-(6-methoxynaphthalen-2-yl)methyl] 2-(3-phenyloxiran-2-yl)acetate (PHOME) as a substrate using recombinant human sEH (HsEH) and murine sEH (MsEH).

The target of data set [2] is T3, recombinant human sEH (HsEH) (Homo sapiens, UniProt P34913).
T3 sequence (P34913 1-555): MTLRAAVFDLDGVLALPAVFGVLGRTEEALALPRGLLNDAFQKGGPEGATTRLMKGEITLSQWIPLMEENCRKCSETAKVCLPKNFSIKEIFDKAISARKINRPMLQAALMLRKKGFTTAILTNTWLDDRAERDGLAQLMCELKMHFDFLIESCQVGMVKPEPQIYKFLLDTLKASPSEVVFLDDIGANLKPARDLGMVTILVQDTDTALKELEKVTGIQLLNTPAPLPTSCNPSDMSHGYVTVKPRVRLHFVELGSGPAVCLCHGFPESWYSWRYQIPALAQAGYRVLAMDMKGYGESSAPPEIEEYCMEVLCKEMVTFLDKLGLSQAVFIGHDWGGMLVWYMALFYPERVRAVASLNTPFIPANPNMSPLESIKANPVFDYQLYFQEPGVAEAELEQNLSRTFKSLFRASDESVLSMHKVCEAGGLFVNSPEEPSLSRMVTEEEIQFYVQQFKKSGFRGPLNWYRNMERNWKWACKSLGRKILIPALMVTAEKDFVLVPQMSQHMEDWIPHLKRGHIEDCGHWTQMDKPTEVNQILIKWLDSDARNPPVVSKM
Description: as §1, §2, §3, §4, §5, §6, §7

Another data set concerns LPS-induced sepsis model. Description: LPS-induced sepsis model. The following applies: LPS 25 mg/kg i.p., administration 4 h after modeling, twice at 8 h interval, n=7. Type of data set: in vivo, Male C57BL/6 mice. As for the experimental part: The drug was administered twice, with an interval of 8 h between administrations.
For data set [3], the target named is T2, murine sEH (MsEH). Particulars: read-out: MsEH IC50, PHOME substrate.
Description: as §1, §2, §3, §4, §5, §6, §7
Data set [4] is described as follows: Pharmacokinetics after intravenous and oral administration. The following applies: rats, i.v. 10 mg/kg. The method, then:
Blood levels were measured within 8 hours after oral administration. […] Table 7 PK of SP-B07 after intravenous and oral administration in rats (n=3)

[5] abbreviates: read-out: HsEH IC50, recombinant human sEH, PHOME substrate.

Like-named read-outs stand apart in the source and are kept apart here.

For orientation: IC50 means the concentration at which inhibition is half-maximal. Take `CC12CC3CC(C)(C1)CC(NC(=O)N1CCC(Oc4ccc(/C=C5\NC(=O)NC5=O)cc4)CC1)(C3)C2` [SP-B03, N-[(1r,3R,5S,7r)-3,5-dimethyladamantan-1-yl]-4-{4-[(Z)-(2,5-dioxyimidazolin-4-ylidene)methyl]phenoxy}piperidin-1-carboxamide]: the “PPARγ (compared with Rosiglitazone, %)” value at PPARγ stood at 10.2%. The IC50 against murine sEH (MsEH) [1] is 135 nM; in data set [2] it was 121 nM.

With `C[C@@H]1C[C@H]2[C@@H]3CCC4=CC(=O)C=C[C@]4(C)[C@@]3(F)[C@@H](O)C[C@]2(C)[C@@]1(O)C(=O)CO` [dexamethasone, reference compound], the “increase of the survival rate” value in the data set on LPS-induced sepsis model stood at 57.1%.

In the case of `O=C1NC(=O)/C(=C/c2ccc(OC3CCN(C(=O)Nc4ccc(OC(F)(F)F)cc4)CC3)cc2)N1` [SP-B04], the “PPARγ (compared with Rosiglitazone, %)” value at PPARγ is 9.6%. In addition, the IC50 is 108 nM against murine sEH (MsEH) [1] and 156 nM in data set [2].

For orientation: EC50 means the concentration that produces a half-maximal response. The low end stands for an effect from little substance, the high end for a need for much substance. Compound `O=C(Nc1ccc(OC(F)(F)F)c(F)c1)N[C@H]1CC[C@H](Oc2ccc(CC3SC(=O)NC3=O)cc2)CC1` (stereo partly drawn) [SP-A07] registered an EC50 at PPARγ of 7750 nM. The “PPARγ (compared with Rosiglitazone, %)” value on PPARγ was determined as 21.1%. The figures for the IC50 (at murine sEH (MsEH) [1]; in data set [2]) were 0.67 nM and 0.07 nM, respectively.

Turning to `O=C(Nc1ccc(OC(F)(F)F)c(F)c1)N[C@H]1CC[C@H](Oc2ccc(/C=C3\SC(=O)NC3=O)cc2)CC1` [SP-B06], the “PPARγ (compared with Rosiglitazone, %)” value at PPARγ came out at 19.3%. Moreover, the values for the IC50 (against murine sEH (MsEH) [1]; in data set [2]) were 1.1 nM and 0.69 nM, respectively.

Take `NC(=O)c1ccc(O[C@H]2CC[C@H](NC(=O)Nc3ccc(OC(F)(F)F)cc3)CC2)cc1` [SP-C01i]: at PPARγ, the “PPARγ (compared with Rosiglitazone, %)” value is 12.97%. Also, the IC50 was 0.7 nM at murine sEH (MsEH) [1] and 0.3 nM in data set [2].

Turning to `COC(=O)CN1C(=O)S/C(=C\c2ccc(O[C@H]3CC[C@H](NC(=O)NC45CC6C[C@@](C)(C4)C[C@](C)(C6)C5)CC3)cc2)C1=O` [SP-D04, methyl 2-(5-((Z)-4-(((1R,4r)-4-(3-((1R,3R,5S,7R)-3,5-dimethyladamantan-1-yl)ureido)cyclohexyl)oxy)benzylidene)-2,4-dioxythiazolin-3-yl)acetate], the values for the IC50 (at murine sEH (MsEH) [3]; in data set [2] (setting [5])) were 10.1 nM and 1.2 nM, respectively. The “PPARγ (compared with Rosiglitazone, %)” value at PPARγ is reported as 1.2%.

On to `O=C1NC(=O)C(Cc2ccc(OC3CCN(C(=O)Nc4ccc(OC(F)(F)F)cc4)CC3)cc2)S1` (stereo not drawn) [SP-A05], for which the IC50 at murine sEH (MsEH) [3] came to 0.43 nM; in data set [2] (setting [5]), 0.53 nM. In addition, on PPARγ, the “PPARγ (compared with Rosiglitazone, %)” value is 14.3%.

Take `CC(=O)Oc1ccc(O[C@H]2CC[C@H](NC(=O)Nc3ccc(OC(F)(F)F)c(F)c3)CC2)cc1` [SP-C01, phenyl 4-(((1r,4r)-4-(3-(3-fluoro-4-(trifluoromethoxy)phenyl)ureido)cyclohexyl)oxy)acetate]: the “time at which maximum concentration was reached after intravenous injection” value in data set [4] is given as 2 min.

On to `CCC(C)C(=O)Nc1ccc(OC2CCCC(NC(=O)NC34CC5CC(C)(CC(C)(C5)C3)C4)C2)cc1` (stereo not drawn) [SP-C01n], for which the IC50 at murine sEH (MsEH) [3] stood at 1.3 nM; in data set [2] (setting [5]), 0.7 nM. Also, at PPARγ, the “PPARγ (compared with Rosiglitazone, %)” value is recorded as 0.7%.

For the compound `CCC(=O)Nc1ccc(OC2CCCC(NC(=O)NC34CC5CC(C)(CC(C)(C5)C3)C4)C2)cc1` (stereo not drawn) [SP-C01m], the results for the IC50 (at murine sEH (MsEH) [3]; in data set [2] (setting [5])) were 6.7 nM and 0.9 nM, respectively. For the same compound, the “PPARγ (compared with Rosiglitazone, %)” value at PPARγ turned out to be 0.9%.

As for `CC12CC3CC(C)(C1)CC(NC(=O)N1CCC(Oc4ccc(CC5SC(=O)NC5=O)cc4)CC1)(C3)C2` (stereo not drawn) [SP-A02], the “PPARγ (compared with Rosiglitazone, %)” value at PPARγ is reported as 25.2%. Also, the figures for the IC50 (on murine sEH (MsEH) [1]; in data set [2]) were 8.3 nM and 83.5 nM, respectively.

In the case of `COC(=O)CN1C(=O)S/C(=C\c2ccc(O[C@H]3CC[C@H](NC(=O)Nc4ccc(OC(F)(F)F)cc4)CC3)cc2)C1=O` [SP-D01, methyl 2-(2,4-dioxo-5-((Z)-4-(((1r,4r)-4-(3-(4-(trifluoromethoxy)phenyl)ureido)cyclohexyl)oxy)benzylidene)thiazolidin-3-yl)acetate], the IC50 at murine sEH (MsEH) [3] stood at 2.4 nM; in data set [2] (setting [5]), 1.1 nM. Besides, on PPARγ, the “PPARγ (compared with Rosiglitazone, %)” value amounted to 1.1%.

For the compound `O=C1NC(=O)/C(=C/c2ccc(OC3CCN(C(=O)Nc4ccc(OC(F)(F)F)cc4)CC3)cc2)S1` [SP-B05, (Z)-4-{4-[(2,4-dioxothiazolidin-5-ylidene)methyl]phenoxy}-N-[4-(trifluoromethoxy)phenyl]piperidin-1-carboxamide], the “PPARγ (compared with Rosiglitazone, %)” value at PPARγ was 17.3%.

As to `CC12CC3CC(C)(C1)CC(NC(=O)N1CCC(Oc4ccc(/C=C5\SC(=O)NC5=O)cc4)CC1)(C3)C2` [SP-B02], on PPARγ, the “PPARγ (compared with Rosiglitazone, %)” value is given as 14.6%. In addition, the IC50 came to 23.4 nM against murine sEH (MsEH) [1] and 19.9 nM in data set [2].

With `CCOC(=O)CC(=O)Nc1ccc(O[C@H]2CC[C@H](NC(=O)Nc3ccc(OC(F)(F)F)c(F)c3)CC2)cc1` [SP-C01s], at PPARγ, the “PPARγ (compared with Rosiglitazone, %)” value worked out at 0.3%. In addition, the values for the IC50 (against murine sEH (MsEH) [1]; in data set [2]) were 0.6 nM and 0.3 nM, respectively.

As for `CC(=O)Nc1ccc(O[C@H]2CC[C@H](NC(=O)Nc3ccc(OC(F)(F)F)c(F)c3)CC2)cc1` [SP-C01k, N-(4-(((1r,4r)-4-(3-(3-fluoro-4-(trifluoromethoxy)phenyl)ureido)cyclohexyl)oxy)phenyl)acetamide], at PPARγ, the “PPARγ (compared with Rosiglitazone, %)” value is reported as 0.3%.

On to `O=C1NC(=O)C(Cc2ccc(OC3CCN(C(=O)Nc4ccc(OC(F)(F)F)c(F)c4)CC3)cc2)S1` (stereo not drawn) [SP-A06], for which the IC50 on murine sEH (MsEH) [3] was determined as 0.73 nM; in data set [2] (setting [5]), 1.3 nM. Besides, the “PPARγ (compared with Rosiglitazone, %)” value at PPARγ worked out at 28.4%.

Regarding `CC12CC3CC(C)(C1)CC(NC(=O)N[C@H]1CC[C@H](Oc4ccc(CC5SC(=O)NC5=O)cc4)CC1)(C3)C2` (stereo partly drawn) [SP-A01], the EC50 on PPARγ was 6770 nM. The “PPARγ (compared with Rosiglitazone, %)” value at PPARγ stood at 34.5%. In addition, the 50% inhibitory concentration (IC50) on murine sEH (MsEH) [1] amounted to 0.54 nM; in data set [2], 0.55 nM.
